Entries after “also recorded” stand apart in the source; their conditions may differ.
What was measured:
[1] = system: Smad1/5/8; assay: Phosphorylation of Smad1/5/8 by Western blotting in primary osteoblasts; type: cell-based, mouse; conditions: 2 uM peptide added to 25 ng/mL BMP-2; FIG. 3
Protocol: Phosphorylation of Smad1/5/8 was evaluated by Western blotting at 0, 0.5, 1, 2, 12, 24, 48 and 72 hours.

[2] = system: primary osteoblasts collected from fetal mouse calvaria; assay: Alkaline phosphatase (ALP) activity in primary osteoblasts under suboptimal BMP-2; type: cell-based
Protocol: The peptide of SEQ ID No. 8 was added to this culture system at 0, 0.2, 0.4, 1.0, 2.0, and 4.0 μM. The levels of ALP were evaluated on days 0, 3, and 7.

[3] = system: COX-2; conditions: Nagel et al., Journal of Cellular Biochemistry, 2004; cited from earlier work
[4] = system: COX-2; assay: Gene expression microarray analysis in Clonetics hMSC cells (COX-2 mRNA); type: cell-based, human; conditions: for COX-2 mRNA increase: 1000 ng/ml peptide
Protocol: Materials and Methods: The effect of the peptide of SEQ ID No. 8 treatment on gene expression was assessed in the Clonetics hMSC cells using gene expression microarray analysis as previously described (Locklin et al., 2001). Briefly, cells were plated in five T-150 vented flasks at a density of 1.0×10^6 cells per flask in growth medium and cultured at 37° C. for 48 hours. Flasks containing either vehicle alone or the peptide of SEQ ID No. 8 (1000 ng/ml) were cultured for 24 hr or for 48 h in standard differentiation medium. At each time point, the vehicle and treatment flasks were trypsinized, cells removed and total RNA was extracted for analysis via the Qiagen Rneasy Kit (Qiagen). 8 μg of total RNA were amplified and biotin labeled. The mixture was hybridized to a U95A human gene expression microarray (Affymetrix) containing probes for 12,600 human genes. The chips were then washed, stained with phycoerythrin-streptavidin and read with an Affymetrix scanner. Hybridization intensity values to mRNA frequency were calculated in molecules per million. Analysis of intensity values was conducted using Spotfire Decision Site (Somerville, Mass.) software.

[5] = system: hemi-calvariae from 4 day old Swiss Webster mice; assay: Mouse calvaria organ culture assay (PGE2, new bone formation histology); type: cell-based; conditions: peptide 1, 10, 100 μg/mL daily for seven days
Source text: Methods: Calvarial organ cultures have been used for many years to study the regulation of bone formation and bone resorption. An advantage of this method compared to in vivo studies is the absence of confounding effects (such as hormonal and mechanical influences) meaning a more direct effect of the test substances on bone tissue can be determined. Also compared to isolated cell systems, interrelationships between the different cell types in the bone and between these cells and the bone matrix are preserved.
Briefly, hemi-calvariae were isolated from 4 day old Swiss Webster mice and incubated in media on steel mesh grids. The peptide of SEQ ID NO. […] Samples of the conditioned media were collected daily for analysis of PGE2 concentration (R&D Systems ELISA kit). At the end of the culture the bones were analyzed for new bone formation and number of osteoblasts using histology.

[6] = system: MC3T3-E1 subclone 4 cells; assay: BMP-2 stimulated PGE2 production by MC3T3 cells (ELISA); type: cell-based, mouse; conditions: suboptimal rhBMP-2 plus varying doses of peptide, 24 hours; FIG. 2
Protocol: Methods: MC3T3-E1 subclone 4 cells are neonatal mouse derived calvarial preosteoblasts with fibroblast morphology. […] For this experiment the MC3T3 cells were plated 10^5 cells per well in 24 well plates in growth medium (alpha MEM+1 mM sodium pyruvate+10% fetal bovine serum (FBS)). After 24 hours of culture the media was removed and replaced with assay media (alphaMEM+1 mM sodium pyruvate+2% FBS) containing the test substances. Each test group utilized 4 wells. After incubation for a further 24 hours the media was removed and the levels of PGE2 were determined using an ELISA (R&D Systems).

[7] = system: human mesenchymal cells; assay: PGE2 in human mesenchymal cells in culture; type: cell-based; conditions: peptide alone
[8] = system: hemi-calvariae from 4 day old Swiss Webster mice; conditions: Middleton-Hardie et al., ASBMR 2005; cited from earlier work
[9] = system: dorsal muscle of mice (ICR); assay: Ectopic bone formation from polymer pellets implanted in mouse dorsal muscle; type: in vivo
Source text: The mice were sacrificed 3 weeks later and the newly formed bones were isolated for evaluation using soft X-ray radiograph and bone mineral density determination.

[10] = system: hard tissue forming cells; assay: General activity statements on hard tissue forming cells
[11] = 2 μM peptide with 25 ng/mL BMP-2

TDLQERGDNDISPFSGDGQPFKD [SEQ ID No. 8]
time over which phosphorylation of Smad1/5/8 was detectable [1]: 0.5 to 48 h
ALP activity increase as compared with BMP-2 treated cells without addition of the peptide [2, 11]: ~2 times
ALP activity increase as compared with the control group [2, 11]: about 3 times
ALP activity in osteoblastic cells ([2]; BMP-2 (suboptimal, 25 ng/mL) plus peptide 0.2-4.0 μM, FIG. 1): significantly increased; also recorded: dose dependent upregulation
COX-2 in human mesenchymal stem cells [3]: upregulated
COX-2 mRNA increase ([4]; 24 h): 3.6 fold
COX-2 mRNA increase ([4]; 48 h): 2.2 fold
mRNA for cyclooxygenase-2 (COX-2) increase, summary ([4]; discussion summary of both time points): ~3 fold
PGE2 production ([5]; FIG. 4): significant increases
bone cell density ([5]; FIG. 5): significant increases
new bone formation ([5]; FIG. 5): significant increases
osteoblast surface ([5]; FIG. 5): significant increases
BMP-2 induced PGE2 production [6]: increases; also recorded: dose dependent production
increase in PGE2 [7]: did not result in a significant increase
production of PGE2 in mouse calvaria organ culture assay [8]: dose dependently upregulated
enhancement of the BMP-2 effects on bone formation (size and mineral density of ectopic ossicles) ([9]; 3 ug BMP-2 in 30 mg polymer, peptide 0-1250 ug, three weeks): significant enhancement
efficacy of the peptide on bone formation (size and mineral density of ectopic ossicles) ([9]; 5 ug BMP-2 in 30 mg polymer, peptide 0-1250 ug, three weeks): unclear
increase in bone formation ([9]; peptide added to suboptimal dose, 3 μg of rhBMP-2): significant and dose dependent increase
biological activities for the purpose of this invention, relative ranking [10]: highest activities
